Earlier results as cited in patent US20050032867A1, “Pharmaceutical composition comprising a 5ht1 receptor agonist” (priority 2001, published 2005).

CNS(=O)(=O)Cc1ccc2[nH]cc(CCN(C)C)c2c1 [sumatriptan]
effect of food on the overall bioavailability (administered orally): no significant effect | delay of Tmax (time to maximum observed serum concentrations) by food (administered orally with food): about 0.5 hour
